Results taken from publication PMC11420946, “An Engineered Nisin Analogue with a Hydrophobic Moiety Attached at Position 17 Selectively Inhibits Enterococcus faecium Strains” (ACS Chemical Biology, 2024).
In brackets after ≈: the same amount, converted by molar mass.

Tests used:
[1] = system: B. cereus CH-85; assay: Spot-on-lawn assay; format: cell-based; conditions: triplicate
[2] = system: E. faecium LMG16003 (VRE); assay: Spot-on-lawn assay; format: cell-based; conditions: triplicate
[3] = system: E. faecium ATCC E1162 (ARE); assay: Spot-on-lawn assay; format: cell-based; conditions: triplicate
[4] = system: E. faecalis LMG16216 (VRE); assay: Spot-on-lawn assay; format: cell-based; conditions: triplicate
[5] = system: Listeria monocytogenes; assay: Agar well diffusion assay against Listeria monocytogenes; format: cell-based; conditions: Figure 4, second round; 30 μL click reaction solution in 8 mm well, LB agar, overnight 37 °C; triplicate
Procedure: (§1) To confirm that this procedure yields the modified nisin and at high purity, HPLC analysis of purified 47 was performed (Figure S2). Based on the area of the peaks, the purity of 47 is 96%. Subsequently, 30 μL of 0.1 mg mL^–1 purified compound was added to the well to assess their activity.
(§2) Cultures grown overnight were introduced into 0.8% LB agar for Listeria monocytogenes or GM17 agar for Enterococcus faecium at a temperature of 45 °C, reaching a final concentration of 0.1% (v/v). Subsequently, 30 mL of the mixture was poured onto the plate. Upon solidification of the agar, 8 mm wells were created, and 30 μL of the aforementioned clicked solutions was spotted into the wells. The agar plate underwent overnight incubation at 37 °C followed by measurement of inhibition zones. By comparing the antimicrobial impact of the click chemistry products in this screening assay, we assume that the yields of the different reactions are similar. Zone diameters were recorded in millimeters, with the zone area (πr^2) minus the well area (πr^2) measured in millimeters.[44]

[6] = system: E. faecium ATCC E1321 (AGRE); assay: Spot-on-lawn assay; format: cell-based; conditions: triplicate
[7] = system: S. aureus LMG10147; assay: Spot-on-lawn assay; format: cell-based; conditions: triplicate
[8] = system: E. faecium LMG11423; assay: Spot-on-lawn assay; format: cell-based; conditions: triplicate
[9] = system: S. aureus LMG15975 (MRSA); assay: Spot-on-lawn assay; format: cell-based; conditions: triplicate
[10] = system: E. faecium ATCC U0317 (ACRE); assay: Spot-on-lawn assay; format: cell-based; conditions: triplicate
[11] = system: L. monocytogenes LMG10470; assay: Spot-on-lawn assay; format: cell-based; conditions: triplicate
[12] = system: Enterococcus faecium; assay: Agar well diffusion assay against Enterococcus faecium; format: cell-based; conditions: for Antibacterial activity against Enterococcus faecium (in words): Figure 5, HPLC-purified peptide, 30 μL of 0.1 mg mL^–1 per well
Procedure: as §1, §2

[13] = system: L. monocytogenes TT82E; assay: Spot-on-lawn assay; format: cell-based; conditions: triplicate
[14] = system: Escherichia coli CECT101; assay: Spot-on-lawn assay; format: cell-based; conditions: triplicate
[15] = system: Enterococcus faecium LMG16003 (VRE); format: cell-based; conditions: as stated in the abstract
Procedure: Minimal inhibitory concentration (MIC) values were determined through broth microdilution following standard guidelines.[29]

[16] = Spot-on-lawn assay to measure peptide-lipid II complex formation; format: binding; conditions: lipid II 300 μM, 2 μL spotted at edge of halo; lawns of E. faecium and S. aureus, overnight 37 °C
Procedure: To assess the interaction between the HPLC purified peptide and lipid II, an overnight culture was introduced into 0.8% GM17 medium for E. faecium or LB medium for S. aureus (w/v, temperature 45 °C) at a final concentration of 1% (v/v). Subsequently, this mixture was evenly distributed onto 10 mL plates. The binding affinity of the peptide and lipid II was further examined by applying purified lipid II (300 μM, 2 μL) to the periphery of the antibiotic inhibition halo. Briefly, HPLC purified antimicrobials were initially applied to the agar plate, and once the antimicrobial solution drops had dried, lipid II was spotted along the edge of the inhibition halo. The plates were then incubated overnight at 37 °C.

[17] = Effect of temperature on antibacterial activity (thermal stability); format: physicochemical; conditions: higher temperatures of 22, 55, 70, 90 °C, 8 h storage; read-out inhibition zone area on L. lactis MG1363 relative to 0 h; three independent experiments
Procedure: Figure S4. Investigation of the thermal stability profile of nisin (compound 1) and compound 47. Thermal stability was evaluated across a temperature range from 22 to 90 °C within an 8-hour incubation period.
Relative antimicrobial activity of the peptides following exposure to different temperatures. The relative activity was determined by calculating the area at different time points divided by the area at the start point (labeled 0 h), multiplied by 100%. Three independent experiments were conducted.

[18] = system: human red blood cells; assay: Hemolysis assay; format: cell-based; conditions: 200 mg/L versus MIC
Procedure: Considering the potential therapeutic application of a bacteriocin, ensuring its safety is of critical importance. Previous studies have identified hemolytic activities in certain bacteriocins, such as listeriolysin S from Listeria monocytogenes([33]) and cytolysin from Enterococcus faecalis.[34] […] Therefore, a close evaluation of the safety of new bacteriocins is essential. In this study, a hemolytic activity assay was conducted to assess the safety of compounds 16 and 47. In this assay, human blood cells were incubated with varying concentrations of compound 16, compound 47, and nisin, ranging from 0.39 to 200 mg/L. Following a 1 h incubation at 37 °C, we measured the OD414 of the supernatants, and hemolytic activities were calculated, with 10% Triton X-100 serving as a positive control.
Erythrocytes were sourced from a healthy human volunteer donor, and whole human blood was subjected to centrifugation at 600g for 15 min. Subsequently, plasma was removed, and the erythrocytes were subjected to three washes with PBS (pH 7) by centrifugation at 600g for 15 min each. […] The supernatant was transferred to a 96-well plate, and absorbance was measured at a wavelength of 414 nm using a Thermo Scientific Varioskan LUX multimode microplate reader. The absorbance, relative to the positive control treated with 10% Triton X-100, was defined as the percentage of hemolysis.

[19] = biological target: proteinase K (Parengyodontium album, UniProt P06873); assay: Effect of proteolytic enzymes on antibacterial activity: proteinase K; conditions: 30 μL peptide 1 mg mL^–1 in agar well with 1 mg mL^–1 proteinase K, pH 7.2, overnight 30 °C; read-out inhibition zone area on L. lactis MG1363 versus no-enzyme control; three independent experiments
Sequence of proteinase K (P06873 106-384): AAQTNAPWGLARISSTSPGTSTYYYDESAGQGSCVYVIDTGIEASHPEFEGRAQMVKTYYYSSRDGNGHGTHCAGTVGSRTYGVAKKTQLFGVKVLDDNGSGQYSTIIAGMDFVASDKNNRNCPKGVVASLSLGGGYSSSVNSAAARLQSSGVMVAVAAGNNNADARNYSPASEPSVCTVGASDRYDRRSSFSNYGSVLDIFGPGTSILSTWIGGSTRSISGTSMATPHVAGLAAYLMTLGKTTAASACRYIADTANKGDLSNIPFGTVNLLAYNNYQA
Procedure: (§3) Next the resistance against the proteolytic enzymes trypsin, chymotrypsin, and protease K was investigated by adding these enzymes in separate experiments to assay wells followed by overnight incubation at 30 °C.
(§4) The impact of proteolytic enzymes and temperature on antimicrobial activity was investigated using the representative strain L. lactis MG1363 through the agar well diffusion assay. Thirty microliters of the HPLC purified peptide (1 mg mL^–1) was directly introduced into the agar well containing a final concentration of 1 mg mL^–1 proteolytic enzymes (pH 7.2) or no proteolytic enzyme (control). The plates were incubated overnight at 30 °C followed by the measurement of inhibition zones. Temperature stability was assessed by incubating the peptide at 22, 55, 70, and 90 °C for the specified duration.

[20] = system: chymotrypsin; assay: Effect of proteolytic enzymes on antibacterial activity: chymotrypsin; conditions: 30 μL peptide 1 mg mL^–1 in agar well with 1 mg mL^–1 chymotrypsin, pH 7.2, overnight 30 °C; read-out inhibition zone area on L. lactis MG1363 versus no-enzyme control; three independent experiments
Procedure: as §3, §4

SMILES	Antimicrobial activity, diameter rating [1]	Antimicrobial activity, diameter rating [2]	Antimicrobial activity, diameter rating [3]	Antimicrobial activity, diameter rating [4]	Antimicrobial activity, diameter rating [6]	Antimicrobial activity, diameter rating [7]	Antimicrobial activity, diameter rating [8]	Antimicrobial activity, diameter rating [9]	Antimicrobial activity, diameter rating [10]	Antimicrobial activity, diameter rating [11]	Antibacterial activity against Enterococcus faecium (in words) [12]	Antimicrobial activity, diameter rating [13]	Antimicrobial activity, diameter rating [14]	further results
C=C(NC(=O)[C@@H](NC(=O)[C@H](Cc1c[nH]cn1)NC(=O)[C@@H](NC(=O)[C@H](CO)NC(=O)[C@@H]1CS[C@@H](C)[C@H]2NC(=O)[C@H](C)NC(=O)[C@H](NC(=O)[C@H](CCCCN)NC(=O)[C@@H](NC(=O)[C@H](CC(N)=O)NC(=O)[C@@H]3CS[C@@H](C)[C@@H](NC(=O)[C@H](CCCCN)NC(=O)[C@@H]4CS[C@@H](C)[C@@H](NC(=O)[C@@H]5CSC[C@@H](NC(=O)/C(=C/C)NC(=O)[C@@H](N)[C@@H](C)CC)C(=O)N[C@@H]([C@@H](C)CC)C(=O)NC(=C)C(=O)N[C@@H](CC(C)C)C(=O)N5)C(=O)N5CCC[C@H]5C(=O)NCC(=O)N4)C(=O)NCC(=O)N[C@@H](C)C(=O)N[C@@H](CC(C)C)C(=O)N[C@@H](CCn4cc(CCCCCCCC)nn4)C(=O)NCC(=O)N3)C(C)C)[C@H](C)SC[C@H](NC2=O)C(=O)N[C@@H](Cc2c[nH]cn2)C(=O)N1)[C@@H](C)CC)C(C)C)C(=O)N[C@@H](CCCCN)C(=O)O [compound 16]	++ (4–8 mm, + +)	++++ (12–16 mm, ++++)	++++ (12–16 mm, ++++)	++ (4–8 mm, + +)	++++ (12–16 mm, ++++)	+ (0–4 mm, +)	+++++ (16–20 mm, +++++)	+ (0–4 mm, +)	++++ (12–16 mm, ++++)	++ (4–8 mm, + +)	high potency of nisin against Enterococcus faecium was retained	++ (4–8 mm, + +)	+ (0–4 mm, +)	Area2: area of the inhibition zone minus the well area, Listeria monocytogenes [5]: 19 mm^2; Area1: area of the inhibition zone minus the well area, Enterococcus faecium ([12]; Figure 4, second round, 30 μL click reaction solution in 8 mm well, GM17 agar, overnight 37 °C, triplicate): 51 mm^2
C=C(NC(=O)[C@@H](NC(=O)[C@H](Cc1c[nH]cn1)NC(=O)[C@@H](NC(=O)[C@H](CO)NC(=O)[C@@H]1CS[C@@H](C)[C@H]2NC(=O)[C@H](C)NC(=O)[C@H](NC(=O)[C@H](CCCCN)NC(=O)[C@@H](NC(=O)[C@H](CC(N)=O)NC(=O)[C@@H]3CS[C@@H](C)[C@@H](NC(=O)[C@H](CCCCN)NC(=O)[C@@H]4CS[C@@H](C)[C@@H](NC(=O)[C@@H]5CSC[C@@H](NC(=O)/C(=C/C)NC(=O)[C@@H](N)[C@@H](C)CC)C(=O)N[C@@H]([C@@H](C)CC)C(=O)NC(=C)C(=O)N[C@@H](CC(C)C)C(=O)N5)C(=O)N5CCC[C@H]5C(=O)NCC(=O)N4)C(=O)NCC(=O)N[C@@H](C)C(=O)N[C@@H](CC(C)C)C(=O)N[C@@H](CCn4cc(CCCc5ccccc5)nn4)C(=O)NCC(=O)N3)C(C)C)[C@H](C)SC[C@H](NC2=O)C(=O)N[C@@H](Cc2c[nH]cn2)C(=O)N1)[C@@H](C)CC)C(C)C)C(=O)N[C@@H](CCCCN)C(=O)O [compound 47]	++ (4–8 mm, + +)	++++ (12–16 mm, ++++)	++++ (12–16 mm, ++++)	++ (4–8 mm, + +)	++++ (12–16 mm, ++++)	+ (0–4 mm, +)	+++++ (16–20 mm, +++++)	+ (0–4 mm, +)	++++ (12–16 mm, ++++)	++ (4–8 mm, + +)	high potency of nisin against Enterococcus faecium was retained	++ (4–8 mm, + +)	+ (0–4 mm, +)	MIC value against E. faecium strains [15]: 3.8 µg/mL (≈ 1.1 µM); Binding to lipid II (effect of added purified lipid II on the inhibition halo) [16]: retained its ability to bind to lipid II; Loss in antimicrobial activity on storage at elevated temperature [17]: Less than 40%; Concentration with minimal hemolytic activity (200 mg/L) relative to MIC against Enterococcus faecium [18]: 50 fold; Loss in antimicrobial activity after exposure to proteinase K [19]: 77%; Loss in antimicrobial activity after exposure to chymotrypsin [20]: 16%
